# Reference: ChEMBL document CHEMBL1130462, “New enone derivatives of oleanolic acid and ursolic acid as inhibitors of nitric oxide production in mouse macrophages” (Bioorg Med Chem Lett, 1997)
# Organism: Mus musculus
# Assay: Compound was measured for its inhibitory activity on IFN-gamma-induced nitric oxide production in mouse macrophage
# Format: functional
row,SMILES,IC50
1,"C[C@]12CCC(=O)C=C1CCC1[C@@H]2[C@@H](O)C[C@@]2(C)[C@H]1CC[C@]2(O)C(=O)CO (single isomer, unassigned) [HYDROCORTISONE]",0.015 µM

# Organism: Mus musculus
# Assay: Inhibitory activity on IFN-gamma-induced nitric oxide production in mouse macrophage at a concentration of 0.1-40 uM
# Format: functional
row,SMILES,IC50
1,CC1(C)CC[C@]2(C(=O)O)CC[C@]3(C)C(=CC[C@@H]4[C@@]5(C)CCC(=O)C(C)(C)[C@@H]5CC[C@]43C)[C@@H]2C1 [OLEANONIC ACID],37.1 µM
2,CC1(C)CC[C@]2(C(=O)O)CC[C@]3(C)C(CC[C@@H]4[C@@]5(C)C=CC(=O)C(C)(C)[C@@H]5CC[C@]43C)C2C1 (stereo partly drawn),8.5 µM
3,CC1(C)CC[C@]2(C(=O)O)CC[C@]3(C)C(=CC[C@@H]4[C@@]5(C)C=C(O)C(=O)C(C)(C)[C@@H]5CC[C@]43C)C2C1 (stereo partly drawn),26.5 µM
4,C[C@@H]1CC[C@]2(C(=O)O)CC[C@]3(C)C(=CC(=O)[C@@H]4[C@@]5(C)C=CC(=O)C(C)(C)[C@@H]5CC[C@]43C)C2[C@H]1C (stereo partly drawn),5.1 µM
5,C[C@@H]1CC[C@]2(C(=O)O)CC[C@]3(C)C(=CC[C@@H]4[C@@]5(C)C=CC(=O)C(C)(C)[C@@H]5CC[C@]43C)C2[C@H]1C (stereo partly drawn),17.6 µM
6,COC(=O)[C@]12CCC(C)(C)CC1C1=CC[C@@H]3[C@@]4(C)C=CC(=O)C(C)(C)[C@@H]4CC[C@@]3(C)[C@]1(C)CC2 (stereo partly drawn),40 µM
7,CC1(C)CC[C@]2(C(=O)O)CC[C@]3(C)[C@H](C(=O)C=C4[C@@]5(C)C=CC(=O)C(C)(C)[C@@H]5CC[C@]43C)[C@@H]2C1,0.9 µM
8,CC1(C)CC[C@]2(C(=O)O)CC[C@]3(C)C(=C2C1)C=C[C@@H]1[C@@]2(C)C=CC(=O)C(C)(C)[C@@H]2CC[C@]13C,9.7 µM
9,CC1(C)CC[C@]2(C(=O)O)CC[C@]3(C)C(=CC(=O)[C@@H]4[C@@]5(C)C=CC(=O)C(C)(C)[C@@H]5CC[C@]43C)C2C1 (stereo partly drawn),1.8 µM
10,CC1(C)CC[C@]2(C(=O)O)CC[C@]3(C)C(=C2C1)CC(=O)[C@@H]1[C@@]2(C)C=CC(=O)C(C)(C)[C@@H]2CC[C@]13C,2.6 µM
11,CC1(C)CC[C@]2(C(=O)O)CC[C@]3(C)C(=CC[C@@H]4[C@@]5(C)C=CC(=O)C(C)(C)[C@@H]5CC[C@]43C)C2C1 (stereo partly drawn),6 µM
12,CC1(C)CC[C@]2(C(=O)O)CC[C@]3(C)C(CC4OC45[C@@]4(C)C=CC(=O)C(C)(C)[C@@H]4CC[C@]53C)C2C1 (stereo partly drawn),35.5 µM
13,CC1(C)CC[C@]2(C(=O)O)CC[C@]3(C)C(=CC[C@@H]4[C@@]5(C)CC[C@H](O)C(C)(C)[C@@H]5CC[C@]43C)[C@@H]2C1 [OLEANOLIC_ACID],40 µM
14,COC1=C[C@]2(C)[C@H]3CC=C4C5CC(C)(C)CC[C@]5(C(=O)O)CC[C@@]4(C)[C@]3(C)CC[C@H]2C(C)(C)C1=O (stereo partly drawn),30 µM
15,CC1(C)CC[C@]2(C(=O)O)CC[C@]3(C)C(C(=O)C[C@@H]4[C@@]5(C)C=CC(=O)C(C)(C)[C@@H]5CC[C@]43C)C2C1 (stereo partly drawn),3.3 µM
16,CC1(C)CC[C@]2(C(=O)O)CC[C@]3(C)C(CC=C4[C@@]5(C)C=CC(=O)C(C)(C)[C@@H]5CC[C@]43C)C2C1 (stereo partly drawn),5.2 µM

# Organism: Mus musculus
# Assay: Compound was measured for its inhibitory activity on IFN-gamma-induced nitric oxide production in mouse macrophage; toxic at 5-10 uM
# Format: functional
row,SMILES,IC50
1,C[C@@H]1CC[C@]2(C(=O)O)CC[C@]3(C)C(=CC[C@@H]4[C@@]5(C)CC[C@H](O)C(C)(C)[C@@H]5CC[C@]43C)C2[C@H]1C (stereo partly drawn),toxic at 5-10 uM
